From patent publication US4226879A, “Antibiotic composition” (Kyowa Hakko Kogyo Kabushiki Kaisha, priority 1976, dated 1980)
Structures can show the parent of a compound that is named as a salt.

Tested on: Eimeria tenella K-2
Assay: anticoccidial test in chicks (Example 4)
Conditions: for Caecal lession (numbers of chicks), ++: grade ++ (middle); for Caecal lession (numbers of chicks), +++: grade +++ (heavy)
[1] = 0.025 % in diet, groups of 10 chicks
[2] = 0.0125 % in diet, groups of 10 chicks
[3] = 0.0033 % in diet, groups of 10 chicks
[4] = 0.0066 % in diet, groups of 10 chicks

Row | Structure (SMILES) | Survival ratio (0.0125 % in diet) [%] | Survival ratio (0.025 % in diet) [%] | Caecal lession (numbers of chicks), ++ [1] | Caecal lession (numbers of chicks), +++ [2] | Caecal lession (numbers of chicks), +++ [1] | Survival ratio (0.0033 % in diet) [%] | Survival ratio (0.0066 % in diet) [%] | Caecal lession (numbers of chicks), + (grade + (light), 0.0066 % in diet, groups of 10 chicks) | Caecal lession (numbers of chicks), ++ [3] | Caecal lession (numbers of chicks), ++ [4] | Caecal lession (numbers of chicks), +++ [3] | Caecal lession (numbers of chicks), +++ [4]
1 | CCCc1ncc(C[n+]2ccccc2C)c(N)n1 [Amprolium hydrochloride, reference compound] | 40 | 70 | 2 numbers of chicks | 10 numbers of chicks | 8 numbers of chicks | – | – | – | – | – | – | –
2 | Cc1nc(C)c(Cl)c(O)c1Cl [Clopidol, reference compound] | 50 | 70 | 4 numbers of chicks | 10 numbers of chicks | 6 numbers of chicks | – | – | – | – | – | – | –
3 | N=C(N/N=C/c1ccc(Cl)cc1)N/N=C/c1ccc(Cl)cc1 [Robenidine hydrochloride, reference compound] | – | – | – | – | – | 80 | 100 | 2 numbers of chicks | 2 numbers of chicks | 5 numbers of chicks | 8 numbers of chicks | 3 numbers of chicks
